The supplement of paper PMC10307832

What was measured:
Test in all cases: relative viability (nuclei count vs DMSO), 5 days (fraction); higher = more cells survive
[1] = compound: CC1=C(CC(=O)O)c2cc(F)ccc2/C1=C\c1ccc([S+](C)[O-])cc1 [Sulindac] + CS(=O)(=O)CCNCc1ccc(-c2ccc3ncnc(Nc4ccc(OCc5cccc(F)c5)c(Cl)c4)c3c2)o1 [Lapatinib] (partner 2 µM)
How it was run: (§1)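 Lung cancer cell lines, seeded in 1536-well plates, were treated the following day by pin tool with a single drug or with five library-drug doses (not always all listed) in √10 steps on top of a fixed anchor-drug dose. Cells were fixed and nuclei stained in one step after 5 days, and nuclei were counted. Relative viability is the nuclei count for treated wells divided by that for vehicle wells, reported as medians of duplicate plates.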

[2] = compound: O=c1[nH]cc(F)c(=O)[nH]1 [5-Fluorouracil] + Nc1ncn([C@H]2C[C@H](O)[C@@H](CO)O2)c(=O)n1 [Decitabine] (partner 2 µM)
How it was run: as §1

[3] = compound: O=c1[nH]cc(F)c(=O)[nH]1 [5-Fluorouracil] + CC(=O)c1c(C)c2cnc(Nc3ccc(N4CCNCC4)cn3)nc2n(C2CCCC2)c1=O [Palbociclib] (partner 0.5 µM)
How it was run: as §1

[4] = compound: O=c1[nH]cc(F)c(=O)[nH]1 [5-Fluorouracil] + CS(=O)(=O)N1CCN(Cc2cc3nc(-c4cccc5[nH]ncc45)nc(N4CCOCC4)c3s2)CC1 [Pictilisib] (partner 1 µM)
How it was run: as §1

Cell Line	relative viability ([1]; first compound 0.08 µM)	relative viability ([1]; first compound 0.253 µM)	relative viability ([1]; first compound 0.8 µM)	relative viability ([1]; first compound 2.53 µM)	relative viability ([1]; first compound 8 µM)	relative viability ([2]; first compound 0.02 µM)	relative viability ([2]; first compound 0.2 µM)	relative viability ([2]; first compound 0.6325 µM)	relative viability ([2]; first compound 2 µM)	relative viability ([3]; first compound 0.02 µM)	relative viability ([3]; first compound 0.2 µM)	relative viability ([3]; first compound 0.6325 µM)	relative viability ([3]; first compound 2 µM)	relative viability ([4]; first compound 0.02 µM)	relative viability ([4]; first compound 0.2 µM)	relative viability ([4]; first compound 0.6325 µM)	relative viability ([4]; first compound 2 µM)
NCI-H1993	0.837	0.801	0.757	0.77	0.805	0.692	0.595	0.541	0.46	0.681	1.19	0.469	0.494	0.793	0.657	0.661	0.779
NCI-H2009	1.02	0.949	0.87	0.946	1.05	0.384	0.404	0.372	0.425	0.196	0.229	0.169	0.213	0.798	0.679	0.533	0.446
NCI-H2023	0.708	0.733	0.741	0.774	1.09	0.271	0.141	0.106	0.0886	0.397	0.155	0.0836	0.102	0.283	0.164	0.0894	0.0821
NCI-H2085	0.746	0.693	0.668	0.69	0.777	0.516	0.567	0.657	0.526	0.434	0.504	0.473	0.5	0.461	0.504	0.445	0.507
NCI-H2087	1.28	1.04	1.27	1.08	1.22	0.244	0.295	0.271	0.224	0.234	0.243	0.164	0.179	0.912	0.916	0.607	0.602
NCI-H2126	0.793	0.722	0.758	0.773	0.861	0.518	0.306	0.28	0.258	0.348	0.29	0.299	0.274	0.504	0.354	0.305	0.306
NCI-H2170	0.249	0.282	0.251	0.272	0.286	0.501	0.451	0.439	0.328	0.407	0.368	0.268	0.249	0.354	0.338	0.314	0.285
NCI-H2347	0.986	0.95	0.694	0.85	1.06	0.587	0.618	0.441	0.407	0.455	0.381	0.395	0.326	0.688	0.44	0.407	0.363
NCI-H2405	1.24	1.11	0.969	1.02	1.39	0.734	0.741	0.738	0.661	0.541	0.579	0.529	0.48	0.566	0.536	0.303	0.463
NCI-H3122	1.05	0.978	1.03	0.966	1.03	0.432	0.447	0.304	0.214	0.216	0.174	0.175	0.174	0.608	0.662	0.312	0.256
PC-3 [JPC-3]	0.476	0.453	0.422	0.457	0.449	0.851	0.873	0.779	0.75	0.562	0.582	0.576	0.509	0.77	0.757	0.796	0.612
PC-14	0.349	0.379	0.315	0.276	0.311	0.265	0.229	0.25	0.275	0.585	0.504	0.435	0.311	0.711	0.763	0.7	0.415
RERF-LC-KJ	0.888	0.934	0.685	0.862	0.943	0.66	0.762	0.776	0.736	1.06	0.991	0.891	0.677	0.587	0.593	0.604	0.465
SK-LU-1	0.981	0.918	–	0.839	0.9	0.636	0.692	0.592	0.548	0.398	0.388	0.382	0.373	0.491	0.558	0.549	0.402
SK-MES-1	0.517	0.497	0.362	0.372	0.486	0.339	0.352	0.323	0.294	0.337	0.285	0.244	0.277	0.34	0.338	0.297	0.196
SW 1573	1.11	1.3	1.02	1.1	1.28	0.619	0.505	0.53	0.502	0.398	0.353	0.29	0.236	–	0.597	0.519	0.328
